Data published in patent US12263172B2, “Toll-like receptor agonists for use in the treatment of hepatitis b” (priority 2019, dated 2025).
Where “and” joins values, the source holds several entries; their conditions need not be identical. Identical values can stand only once.

Experiment: Phase 1 single-ascending dose (Part 1): safety and tolerability in healthy adults
Type: in vivo, human
Protocol: This ongoing trial is a Phase 1 randomized, double-blind, placebo-controlled study in male and female healthy adult volunteers aged 18-55 years. All volunteers provided written, informed consent.
All volunteers were followed up for 4 weeks and safety and tolerability were continuously assessed throughout the study. All adverse events (AEs) were recorded from the time of consent to the completion visit and were graded using the DAIDS toxicity grading scale. Volunteers also underwent physical examinations, electrocardiograms, vital sign checks and clinical laboratory parameters (chemistry, haematology, urinalysis).

CCCCOc1nc(N)c2[nH]cc(Cc3ccc(CN4CCCC4)cc3)c2n1 [Compound 4]
1 (14.3%) n (%): ECG change from reference: QTcF (ms) [30; 60] (single dose 1.25 mg fed) | lab toxicity: Amylase (U/L), upwards, Grade 1 (single dose 1.25 mg fed) | lab toxicity: LDL cholesterol (mmol/L, calculated), upwards, Grade 1 (single dose 1.25 mg fed) | lab toxicity: Triglycerides (mmol/L), upwards, Grade 2 (single dose 1.25 mg fed) | subjects with at least one AE possibly related to any study drug (single dose 1.25 mg fed) | subjects with at least one AE possibly, probably or very likely related to any study drug (single dose 1.25 mg fed) | treatment-related AE: Any AE (single dose 1.25 mg fed) | treatment-related AE: Oropharyngeal pain (single dose 1.25 mg fed) | treatment-related AE: Respiratory, thoracic and mediastinal disorders (single dose 1.25 mg fed) | vital signs: SaO2 (%) 90% to <95% (single dose 1.25 mg fed) | vital signs: Standing DBP (mmHg) Grade 1 (single dose 1.25 mg fed) | vital signs: Standing DBP (mmHg) Grade 3 (single dose 1.25 mg fed) | vital signs: Standing pulse (bpm) High (single dose 1.25 mg fed) | vital signs: Supine DBP (mmHg) Grade 1 (single dose 1.25 mg fed)
2 (25.0%) n (%): treatment-related AE: Oropharyngeal pain (single dose 1.25 mg fasted) | treatment-related AE: Respiratory, thoracic and mediastinal disorders (single dose 1.25 mg fasted) | vital signs: Standing DBP (mmHg) Grade 2 (single dose 1.25 mg fasted)
4 (50) n (%): ↑ Triglycerides Grade 2 (laboratory abnormality) (single dose 1.25 mg fasted)
1 (14) n (%): Headache Grade 1 (treatment-emergent AE) (single dose 1.25 mg fed) | URTI Grade 1 (treatment-emergent AE) (single dose 1.25 mg fed)
2 (28.6%) n (%): ECG change from reference: QTcB (ms) [30; 60] (single dose 1.25 mg fed) | lab toxicity: Glucose (mmol/L), upwards, Grade 1 (single dose 1.25 mg fed) | vital signs: Standing DBP (mmHg) Grade 2 (single dose 1.25 mg fed)
2 (29) n (%): Oropharyngeal pain Grade 1 (treatment-emergent AE) (single dose 1.25 mg fed)
1 (17) n (%): ↑ Cholesterol Grade 2 (laboratory abnormality) (single dose 1.25 mg fasted)
6 (75.0%) n (%): treatment-related AE: Any AE (single dose 1.25 mg fasted)
6 (85.7%) n (%): subjects with at least one AE (single dose 1.25 mg fed) | subjects with at least one grade 1 AE (single dose 1.25 mg fed)
7 (87.5%) n (%): subjects with at least one grade 1 AE (single dose 1.25 mg fasted) | vital signs: Respiratory rate (brpm) Grade 1 (single dose 1.25 mg fasted)
0 n (%): subjects with at least one SAE (single dose 1.25 mg fasted) | subjects with at least one fatal AE (single dose 1.25 mg fasted) | subjects with at least one grade 3 or 4 AE (single dose 1.25 mg fasted) | treatment-related AE: Chills (single dose 1.25 mg fasted) | treatment-related AE: Dizziness (single dose 1.25 mg fasted) | treatment-related AE: Hypertension (single dose 1.25 mg fasted) | treatment-related AE: Vascular disorder (single dose 1.25 mg fasted) | vital signs: Respiratory rate (brpm) Grade 2 (single dose 1.25 mg fasted) | vital signs: Standing DBP (mmHg) Grade 3 (single dose 1.25 mg fasted) | vital signs: Standing DBP (mmHg) Low (single dose 1.25 mg fasted) | vital signs: Standing pulse (bpm) Low (single dose 1.25 mg fasted) | vital signs: Supine DBP (mmHg) Low (single dose 1.25 mg fasted) | vital signs: Supine SBP (mmHg) Grade 2 (single dose 1.25 mg fasted) | vital signs: Supine pulse (bpm) Low (single dose 1.25 mg fasted) | ↑ AST Grade 3 (laboratory abnormality) (single dose 1.25 mg fasted) | ↑ Amylase Grade 2 (laboratory abnormality) (single dose 1.25 mg fasted) | ↑ Creatine kinase Grade 2 (laboratory abnormality) (single dose 1.25 mg fasted) | ↑ Creatine kinase Grade 4 (laboratory abnormality) (single dose 1.25 mg fasted) | ↑ LDL cholesterol Grade 2 (laboratory abnormality) (single dose 1.25 mg fasted) | ↑ Lipase Grade 2 (laboratory abnormality) (single dose 1.25 mg fasted) | ↑ Pancreatic amylase Grade 2 (laboratory abnormality) (single dose 1.25 mg fasted) | ↑ Potassium Grade 2 (laboratory abnormality) (single dose 1.25 mg fasted) | ↑ Triglycerides Grade 3 (laboratory abnormality) (single dose 1.25 mg fasted) | ↓ Bicarbonate Grade 2 (laboratory abnormality) (single dose 1.25 mg fasted) | ↓ Lymphocytes Grade 4 (laboratory abnormality) (single dose 1.25 mg fasted) | ↓ Neutrophils Grade 2 (laboratory abnormality) (single dose 1.25 mg fasted) | ↓ Phosphate Grade 2 (laboratory abnormality) (single dose 1.25 mg fasted) | Back pain Grade 1 (treatment-emergent AE) (single dose 1.25 mg fed) | Chills Grade 1 (treatment-emergent AE) (single dose 1.25 mg fed) | Contact dermatitis Grade 1 (treatment-emergent AE) (single dose 1.25 mg fed) | Dizziness Grade 1 (treatment-emergent AE) (single dose 1.25 mg fed) | ECG actual value: Heart rate (bpm) Low (single dose 1.25 mg fed) | ECG actual value: QRS (ms) High (single dose 1.25 mg fed) | ECG actual value: QTcB (ms) ]450; 480] (single dose 1.25 mg fed) | ECG actual value: QTcF (ms) ]450; 480] (single dose 1.25 mg fed) | Headache Grade 2 (treatment-emergent AE) (single dose 1.25 mg fed) | Hypertension Grade 1 (treatment-emergent AE) (single dose 1.25 mg fed) | Hypertension Grade 2 (treatment-emergent AE) (single dose 1.25 mg fed) | Myalgia Grade 1 (treatment-emergent AE) (single dose 1.25 mg fed) | Pyrexia Grade 1 (treatment-emergent AE) (single dose 1.25 mg fed) | Pyrexia Grade 2 (treatment-emergent AE) (single dose 1.25 mg fed) | lab toxicity: Amylase (U/L), upwards, Grade 2 (single dose 1.25 mg fed) | lab toxicity: Cholesterol (mmol/L), upwards, Grade 1 (single dose 1.25 mg fed) | lab toxicity: Cholesterol (mmol/L), upwards, Grade 2 (single dose 1.25 mg fed) | lab toxicity: Creatine kinase (U/L), upwards, Grade 1 (single dose 1.25 mg fed) | lab toxicity: Creatine kinase (U/L), upwards, Grade 2 (single dose 1.25 mg fed) | lab toxicity: Creatine kinase (U/L), upwards, Grade 4 (single dose 1.25 mg fed) | lab toxicity: Glucose (mmol/L), upwards, Grade 2 (single dose 1.25 mg fed) | lab toxicity: LDL cholesterol (mmol/L, calculated), upwards, Grade 2 (single dose 1.25 mg fed) | lab toxicity: LDL cholesterol (mmol/L, calculated), upwards, Grade 3 (single dose 1.25 mg fed) | lab toxicity: Lymphocytes (giga/L), downwards, Grade 2 (single dose 1.25 mg fed) | lab toxicity: Lymphocytes (giga/L), downwards, Grade 4 (single dose 1.25 mg fed) | lab toxicity: Neutrophils, segmented (giga/L), downwards, Grade 1 (single dose 1.25 mg fed) | lab toxicity: Neutrophils, segmented (giga/L), downwards, Grade 2 (single dose 1.25 mg fed) | lab toxicity: Platelets (giga/L), downwards, Grade 1 (single dose 1.25 mg fed) | lab toxicity: Sodium (mmol/L), upwards, Grade 2 (single dose 1.25 mg fed) | lab toxicity: Triglycerides (mmol/L), upwards, Grade 3 (single dose 1.25 mg fed) | lab toxicity: Urate (μmol/L), upwards, Grade 1 (single dose 1.25 mg fed) | subjects with at least one AE for which any study drug or study was permanently stopped (single dose 1.25 mg fed) | subjects with at least one AE for which any study drug or study was temporarily stopped (single dose 1.25 mg fed) | subjects with at least one AE probably related to any study drug (single dose 1.25 mg fed) | subjects with at least one AE very likely related to any study drug (single dose 1.25 mg fed) | subjects with at least one SAE (single dose 1.25 mg fed) | subjects with at least one fatal AE (single dose 1.25 mg fed) | subjects with at least one grade 2 AE (single dose 1.25 mg fed) | subjects with at least one grade 3 or 4 AE (single dose 1.25 mg fed) | treatment-related AE: Chills (single dose 1.25 mg fed) | treatment-related AE: Dizziness (single dose 1.25 mg fed) | treatment-related AE: General disorders and administration site conditions (single dose 1.25 mg fed) | treatment-related AE: Headache (single dose 1.25 mg fed) | treatment-related AE: Hypertension (single dose 1.25 mg fed) | treatment-related AE: Myalgia (single dose 1.25 mg fed) | treatment-related AE: Nervous system disorders (single dose 1.25 mg fed) | treatment-related AE: Pyrexia (single dose 1.25 mg fed) | treatment-related AE: Vascular disorder (single dose 1.25 mg fed) | vital signs: Respiratory rate (brpm) Grade 2 (single dose 1.25 mg fed) | vital signs: Standing DBP (mmHg) Low (single dose 1.25 mg fed) | vital signs: Standing SBP (mmHg) Low (single dose 1.25 mg fed) | vital signs: Standing pulse (bpm) Low (single dose 1.25 mg fed) | vital signs: Supine DBP (mmHg) Low (single dose 1.25 mg fed)
3 (42.9%) n (%): lab toxicity: Sodium (mmol/L), upwards, Grade 1 (single dose 1.25 mg fed) | lab toxicity: Triglycerides (mmol/L), upwards, Grade 1 (single dose 1.25 mg fed) | vital signs: Respiratory rate (brpm) Grade 1 (single dose 1.25 mg fed) | vital signs: SaO2 (%) 95% to <98% (single dose 1.25 mg fed) | vital signs: Standing SBP (mmHg) Grade 1 (single dose 1.25 mg fed)
6 (86) n (%): Any AE (treatment-emergent) (single dose 1.25 mg fed)
4 (50.0%) n (%): treatment-related AE: Headache (single dose 1.25 mg fasted) | treatment-related AE: Nervous system disorders (single dose 1.25 mg fasted)
1 (12.5%) n (%): subjects with at least one grade 2 AE (single dose 1.25 mg fasted) | vital signs: Standing DBP (mmHg) Grade 1 (single dose 1.25 mg fasted) | vital signs: Standing SBP (mmHg) Grade 1 (single dose 1.25 mg fasted) | vital signs: Standing SBP (mmHg) Low (single dose 1.25 mg fasted) | vital signs: Standing pulse (bpm) High (single dose 1.25 mg fasted) | vital signs: Supine DBP (mmHg) Grade 1 (single dose 1.25 mg fasted) | vital signs: Supine SBP (mmHg) Grade 1 (single dose 1.25 mg fasted) | vital signs: Supine SBP (mmHg) Low (single dose 1.25 mg fasted)
3 (37.5%) n (%): treatment-related AE: General disorders and administration site conditions (single dose 1.25 mg fasted) | treatment-related AE: Myalgia (single dose 1.25 mg fasted) | treatment-related AE: Pyrexia (single dose 1.25 mg fasted) | vital signs: SaO2 (%) 90% to <95% (single dose 1.25 mg fasted) | vital signs: SaO2 (%) 95% to <98% (single dose 1.25 mg fasted)
3 and 3/8: subjects with fever and flu-like symptoms (flu-like AEs and lymphopenia) (single dose 1.25 mg fasted)
1 (13) n (%): ↑ Glucose Grade 2 (laboratory abnormality) (single dose 1.25 mg fasted) | ↑ LDL cholesterol Grade 3 (laboratory abnormality) (single dose 1.25 mg fasted) | ↑ Sodium Grade 2 (laboratory abnormality) (single dose 1.25 mg fasted) | ↓ Lymphocytes Grade 2 (laboratory abnormality) (single dose 1.25 mg fasted)
